The target of one test is T1, AmvR (Acinetobacter baumannii, UniProt A0A7U3Y8S7).
T1 sequence (A0A7U3Y8S7 4-192): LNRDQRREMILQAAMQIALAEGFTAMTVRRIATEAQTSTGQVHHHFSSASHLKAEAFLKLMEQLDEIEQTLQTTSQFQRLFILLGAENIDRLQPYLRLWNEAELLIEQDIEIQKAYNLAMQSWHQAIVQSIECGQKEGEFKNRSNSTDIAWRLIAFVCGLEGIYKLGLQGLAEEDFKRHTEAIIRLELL
Briefly: Isothermal titration calorimetry of polyamines with apo AmvR wild-type. In kind it is binding. The note with it: ITC, 20°C, read-out: equilibrium dissociation constant (Kd). Here is the method:
(§1) The AmvR^WT or mutant proteins were purified with affinity chromatography followed by size-exclusion chromatography and buffer-exchange with buffer D. The polyamines were also dissolved in Buffer D. The ITC experiments were performed at 20°C using a MicroCal PEAQ-ITC (Malvern Panalytical Ltd) using 20 injections of 2 µL or 25 injections of 1.6 µL. A solution of 100 µM AmvR wild-type or mutants was loaded into the cell, whereas a 1 mM solution of polyamines was loaded into the syringe. The measured heat changes of the binding reactions were integrated and analyzed using the standard “one set of sites” model implemented in the Origin software package (OriginLab) to determine the binding stoichiometry (N-value) and the equilibrium dissociation constant (Kd).

Another test has as its target T2, AmvR^E71A (Acinetobacter baumannii, UniProt A0A7U3Y8S7, E71A).
T2 sequence (A0A7U3Y8S7 4-192 E71A): T1 sequence (A0A7U3Y8S7 4-192)
Briefly: ITC of polyamines with AmvR^E71A mutant. Type of test: binding. Here is the method:
as §1

Test [1] concerns the target AmvR (a.a. 4-192) from Acinetobacter baumannii, wild type (Acinetobacter baumannii). Briefly: SEC; Superdex 75 Increase 10/300 GL, buffer F (200 mM NaCl, 20 mM Tris pH 8.0, 5 mM DTT), compared with gel filtration standards; AmvR^WT also with 2x and 10x spermidine. In general terms: Size exclusion chromatography separates by hydrodynamic size, large species first.
The target in another test is T3, AmvR L86A (Acinetobacter baumannii, UniProt A0A7U3Y8S7, L86A).
T3 sequence (A0A7U3Y8S7 4-192 L86A): T1 sequence (A0A7U3Y8S7 4-192)
Briefly: ITC of spermidine with AmvR L86A mutant. In kind it is binding. The protocol: as §1

For the next test, the target named is T4, AmvR E106A (Acinetobacter baumannii, UniProt A0A7U3Y8S7, E106A).
T4 sequence (A0A7U3Y8S7 4-192 E106A): T1 sequence (A0A7U3Y8S7 4-192)
Briefly: ITC of spermidine with AmvR E106A mutant. In kind it is binding. The protocol: as §1

Another test concerns the target T5, AmvR N103A (Acinetobacter baumannii, UniProt A0A7U3Y8S7, N103A).
T5 sequence (A0A7U3Y8S7 4-192 N103A): T1 sequence (A0A7U3Y8S7 4-192)
Briefly: ITC of spermidine with AmvR N103A mutant. In kind it is binding. The protocol:
as §1

The target in another test is T6, AmvR^E164A (Acinetobacter baumannii, UniProt A0A7U3Y8S7, E164A).
T6 sequence (A0A7U3Y8S7 4-192 E164A): T1 sequence (A0A7U3Y8S7 4-192)
Briefly: ITC of spermidine with AmvR^E164A mutant. Type of test: binding. The protocol:
as §1

For the next test, the target named is T7, AmvR W126E (Acinetobacter baumannii, UniProt A0A7U3Y8S7, W126E).
T7 sequence (A0A7U3Y8S7 4-192 W126E): T1 sequence (A0A7U3Y8S7 4-192)
Briefly: ITC of spermidine with AmvR W126E mutant. Type of test: binding. Here is the method:
as §1

The target of a further test is T8, AmvR L99E (Acinetobacter baumannii, UniProt A0A7U3Y8S7, L99E).
T8 sequence (A0A7U3Y8S7 4-192 L99E): T1 sequence (A0A7U3Y8S7 4-192)
Briefly: ITC of spermidine with AmvR L99E mutant. Type of test: binding. The protocol:
as §1

Another test has as its target T9, AmvR^L99Q (Acinetobacter baumannii, UniProt A0A7U3Y8S7, L99Q).
T9 sequence (A0A7U3Y8S7 4-192 L99Q): T1 sequence (A0A7U3Y8S7 4-192)
Briefly: ITC of spermidine with AmvR^L99Q mutant. In kind it is binding. The protocol: as §1

For a further test, the target named is T10, AmvR W102A (Acinetobacter baumannii, UniProt A0A7U3Y8S7, W102A).
T10 sequence (A0A7U3Y8S7 4-192 W102A): T1 sequence (A0A7U3Y8S7 4-192)
Briefly: ITC of spermidine with AmvR W102A mutant. Type of test: binding. The protocol: as §1

Another test concerns the target T11, AmvR E65A (Acinetobacter baumannii, UniProt A0A7U3Y8S7, E65A).
T11 sequence (A0A7U3Y8S7 4-192 E65A): T1 sequence (A0A7U3Y8S7 4-192)
Briefly: ITC of spermidine with AmvR E65A mutant. Type of test: binding. Here is the method: as §1

In general, Kd refers to a measure of binding affinity in units of concentration. On to `NCCCCCN` [cadaverine], for which the results for the equilibrium dissociation constant (Kd) on AmvR and on AmvR^E71A were 5.88 µM and 69.9 µM, respectively.

In general, stoichiometry N refers to the number of molecules, sites or subunits per partner or assembly. In turn, “AmvR (a.a. 4-192) from Acinetobacter baumannii, wild type (natural protein)” yielded a stoichiometry N in test [1] of 2.

As to `NCCCCN` [putrescine], the dissociation constant (Kd) on AmvR is 9.52 µM.

As to `NCCCCNCCCN` [spermidine], the dissociation constant Kd on AmvR worked out at 0.73 µM; at AmvR L86A, 6.21 µM; at AmvR E106A it was 7.09 µM; at AmvR^E71A, 40.5 µM; on AmvR N103A it was 1.22 µM; at AmvR W126E, 7.52 µM. The equilibrium dissociation constant (Kd) at AmvR L99E came to 5.71 µM; on AmvR^L99Q it was 0.75 µM; on AmvR E65A it was 0.96 µM. The KD entry at AmvR^E164A is “eliminated spermidine binding”; on AmvR W102A it was “completely eliminated spermidine binding”.

Turning to `NCCCNCCCCNCCCN` [spermine], the values for the dissociation constant (Kd) at AmvR and at AmvR^E71A were 2.16 µM and 88.5 µM, respectively.

Values taken from publication PMC12077194, “Structural basis for spermidine recognition and modulation of Acinetobacter baumannii multidrug efflux regulator AmvR” (mBio, 2025).
